How the values were obtained:
CYP2D6 = CYP2D6 (Homo sapiens, UniProt P10635); test: P450-Glo CYP2D6 Luc-IP assay
Recombinant TDO = molecular target: T1, Recombinant TDO (Homo sapiens, UniProt P48775); test: Biochemical assay for TDO (NFK GreenScreen); conditions: 50 nM TDO, 200 μM L-tryptophan
T1 construct: Recombinant TDO (Seegers, N., et al.) and all other assay components were diluted in TDO reaction buffer
Description: Biochemical Assay for TDO
The NFK GreenScreen™ assay technology was also used to determine the inhibitory activity of compounds on TDO (Seegers, N., et al., J. Biol. Screen. 19: 1266; 2014). Compounds were serially diluted in DMSO and finally in TDO reaction buffer, consisting of 100 mM NaH2PO4, pH 7.0, supplemented with 0.02% Tween-20 (cat. No. P7949; Sigma Aldrich). Recombinant TDO (Seegers, N., et al.) and all other assay components were diluted in TDO reaction buffer. 10 μl of compound solution and 20 μl of enzyme solution supplemented with 200 μM ascorbic acid were combined in the well of a black 384-well plate (cat. no. 3573; Corning, Corning, N.Y., USA), and incubated for 60 min at room temperature. Subsequently, 10 μl of 0.8 mM of the substrate L-tryptophan was added, i.e., the final concentration of L-tryptophan was 200 μM. The DMSO concentration in the assay was 0.3%. The concentration of TDO was 50 nM. Incubation was continued for 15 min at room temperature. Then, 10 μl of NFK Green™ (NTRC, Oss, The Netherlands) was added, the plate was sealed, and the reaction was developed for 3 hours at 37° C. To determine the production of N-formyl kynurenine (NFK), the seal was removed and fluorescence was read on an EnVision multimode reader (Perkin Elmer, Waltham, Mass., USA). IC50 were calculated using XLfit™ software (ID Business Solutions, Ltd., Surrey, U.K.).

CYP3A4 = CYP3A4 (Homo sapiens, UniProt P08684); test: P450-Glo CYP3A4 luciferin isopropylacetal (Luc-IP) assay
Sequence of CYP3A4 (P08684 whole entry): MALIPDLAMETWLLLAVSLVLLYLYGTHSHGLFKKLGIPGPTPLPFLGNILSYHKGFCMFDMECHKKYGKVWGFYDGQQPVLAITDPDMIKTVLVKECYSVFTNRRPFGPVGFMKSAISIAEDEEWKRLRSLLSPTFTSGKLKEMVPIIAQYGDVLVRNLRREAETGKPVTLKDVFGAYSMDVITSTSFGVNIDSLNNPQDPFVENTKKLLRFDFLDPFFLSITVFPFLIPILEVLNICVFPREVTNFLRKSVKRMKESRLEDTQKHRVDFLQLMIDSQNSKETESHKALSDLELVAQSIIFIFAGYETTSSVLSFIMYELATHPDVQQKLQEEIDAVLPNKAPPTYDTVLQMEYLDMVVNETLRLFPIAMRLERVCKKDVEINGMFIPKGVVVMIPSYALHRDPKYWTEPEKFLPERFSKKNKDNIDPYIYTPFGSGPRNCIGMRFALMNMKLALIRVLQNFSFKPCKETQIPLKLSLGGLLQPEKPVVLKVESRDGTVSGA
Description: To determine the inhibitory potency of compounds on CYP3A4 enzyme, the P450-Glo CYP3A4 luciferin isopropylacetal (Luc-IP) assay was used (Promega, Madison, Wis., USA, Cat. No. V9920). The assay makes use of a luminogenic isopropylacetal (IPA) substrate that is a derivative from beetle luciferin, a substrate of luciferase enzymes. The IPA substrate is converted by CYP3A4 to luciferin, which in turn reacts with luciferase to produce an amount of light that is directly proportional to the activity of CYP3A4. Compounds were serially diluted in DMSO and finally in 400 mM K2HPO4, pH 7.4. 5 μl of compound solution and 5 μl of CYP3A4/substrate solution were combined in the well of a white 384-well Optiplate (Perkin Elmer). The DMSO concentration in the assay was 0.1%. After incubation for 10 minutes at room temperature in the dark, 10 μl of NADPH regeneration system was added and incubation was continued for 10 min. Then, 20 μl of Luciferin Detection Reagent was added to stop the reaction, and incubation was continued for another 20 min. Luminescence was measured on an Envision multimode reader and IC50 values were calculated using XLfit™. […] Instead of in a 96-well plate, the assay was performed in 384-well white Perkin Elmer Optiplate (cat. no. 6007290).

Sequence of CYP2D6 (P10635 whole entry): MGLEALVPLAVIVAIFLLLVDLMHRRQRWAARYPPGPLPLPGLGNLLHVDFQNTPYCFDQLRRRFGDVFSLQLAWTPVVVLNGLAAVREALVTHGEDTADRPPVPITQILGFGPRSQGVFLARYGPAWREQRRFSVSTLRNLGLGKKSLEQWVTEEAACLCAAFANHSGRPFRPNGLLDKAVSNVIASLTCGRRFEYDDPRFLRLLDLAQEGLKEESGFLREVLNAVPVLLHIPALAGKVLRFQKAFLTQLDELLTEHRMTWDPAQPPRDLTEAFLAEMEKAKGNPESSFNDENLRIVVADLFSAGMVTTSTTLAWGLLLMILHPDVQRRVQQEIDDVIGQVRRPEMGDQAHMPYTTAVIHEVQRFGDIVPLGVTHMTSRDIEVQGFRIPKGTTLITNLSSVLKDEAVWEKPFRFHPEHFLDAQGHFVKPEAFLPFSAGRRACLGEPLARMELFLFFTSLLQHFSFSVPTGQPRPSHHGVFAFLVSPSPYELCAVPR
T1 sequence (P48775 whole entry): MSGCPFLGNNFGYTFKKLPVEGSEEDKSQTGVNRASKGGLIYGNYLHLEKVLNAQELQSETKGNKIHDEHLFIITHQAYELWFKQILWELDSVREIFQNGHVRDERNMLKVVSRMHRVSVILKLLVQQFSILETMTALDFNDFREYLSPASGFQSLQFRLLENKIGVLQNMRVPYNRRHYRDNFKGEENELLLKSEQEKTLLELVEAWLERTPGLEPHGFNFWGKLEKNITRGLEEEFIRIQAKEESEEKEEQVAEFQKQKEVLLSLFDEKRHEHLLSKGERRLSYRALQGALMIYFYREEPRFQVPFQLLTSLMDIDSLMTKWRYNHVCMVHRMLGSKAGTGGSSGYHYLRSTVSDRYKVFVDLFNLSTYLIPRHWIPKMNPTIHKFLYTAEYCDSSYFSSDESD

IC50 (CYP2D6) | IC50 (Recombinant TDO) | IC50 (CYP3A4) | Structure (SMILES)
> 10 µM | < 1 µM | > 10 µM | CNC(=O)Nc1ccc(-c2c[nH]c3cc(F)ccc23)cc1 [Example 5, 1-[4-(6-Fluoro-1H-indol-3-yl)phenyl]-3-methyl-urea]
> 10 µM | 1 to 5 µM | > 10 µM | CCNC(=O)Nc1ccc(-c2c[nH]c3cc(F)ccc23)cc1 [Example 6, 1-Ethyl-3-[4-(6-fluoro-1H-indol-3-yl)phenyl]urea]
> 10 µM | 1 to 5 µM | > 10 µM | CN(C)C(=O)Nc1ccc(-c2c[nH]c3cc(F)ccc23)cc1 [Example 7, 3-[4-(6-Fluoro-1H-indol-3-yl)phenyl]-1,1-dimethyl-urea]
> 10 µM | < 1 µM | > 10 µM | O=C(NCC1CC(F)(F)C1)c1ccc(-c2c[nH]c3cc(F)ccc23)cc1 [Example 9, N-[(3,3-difluorocyclobutyl)methyl]-4-(6-fluoro-1H-indol-3-yl)benzamide]
> 10 µM | < 1 µM | > 10 µM | COC(=O)[C@@H](C)NC(=O)c1ccc(-c2c[nH]c3cc(F)ccc23)cc1 [Example 18, Methyl (2R)-2-[[4-(6-fluoro-1H-indol-3-yl)benzoyl]amino]propanoate]
> 10 µM | < 1 µM | > 10 µM | CCCC(C)NC(=O)c1ccc(-c2c[nH]c3cc(F)ccc23)cc1 (centres unmarked) [Example 22, 4-(6-Fluoro-1H-indol-3-yl)-N-(1-methylbutyl)benzamide]
> 10 µM | 1 to 5 µM | > 10 µM | O=C(CC1CC1)Nc1ccc(-c2c[nH]c3cc(F)ccc23)cc1 [Example 28, 2-Cyclopropyl-N-[4-(6-fluoro-1H-indol-3-yl)phenyl]acetamide]
> 10 µM | < 1 µM | > 10 µM | CCNCC(=O)Nc1ccc(-c2c[nH]c3cc(F)ccc23)cc1 [Example 29, 2-(Ethylamino)-N-[4-(6-fluoro-1H-indol-3-yl)phenyl]acetamide]
> 10 µM | < 1 µM | > 10 µM | O=C(CC1COC1)Nc1ccc(-c2c[nH]c3cc(F)ccc23)cc1 [Example 30, N-[4-(6-fluoro-1H-indol-3-yl)phenyl]-2-(oxetan-3-yl)acetamide]
> 10 µM | < 1 µM | > 10 µM | N#CCC(=O)Nc1ccc(-c2c[nH]c3cc(F)ccc23)cc1 [Example 32, 2-Cyano-N-[4-(6-fluoro-1H-indol-3-yl)phenyl]acetamide]
> 10 µM | < 1 µM | > 10 µM | COCC(C)C(=O)Nc1ccc(-c2c[nH]c3cc(F)ccc23)cc1 (centres unmarked) [Example 33, N-[4-(6-fluoro-1H-indol-3-yl)phenyl]-3-methoxy-2-methyl-propanamide]
> 10 µM | < 1 µM | > 10 µM | C[C@H](O)CC(=O)Nc1ccc(-c2c[nH]c3cc(F)ccc23)cc1 [Example 34, (3S)—N-[4-(6-fluoro-1H-indol-3-yl)phenyl]-3-hydroxy-butanamide]
> 10 µM | < 1 µM | > 10 µM | CC(C)(O)CC(=O)Nc1ccc(-c2c[nH]c3cc(F)ccc23)cc1 [Example 35, N-[4-(6-fluoro-1H-indol-3-yl)phenyl]-3-hydroxy-3-methyl-butanamide]
> 10 µM | < 1 µM | > 10 µM | C[C@H](CO)NC(=O)c1ccc(-c2c[nH]c3ccc(F)cc23)cc1 [Example 37, 4-(5-Fluoro-1H-indol-3-yl)-N-[(1R)-2-hydroxy-1-methyl-ethyl]benzamide]
> 10 µM | < 1 µM | > 10 µM | CN(C)CCCNC(=O)c1ccc(-c2c[nH]c3ccc(F)cc23)cc1 [Example 38, N-[3-(dimethylamino)propyl]-4-(5-fluoro-1H-indol-3-yl)benzamide]
> 10 µM | – | > 10 µM | O=C(Nc1ccc(-c2c[nH]c3cc(F)ccc23)cc1)C1CCC1(F)F (centres unmarked) [Example 101, 2,2-Difluoro-N-[4-(6-fluoro-1H-indol-3-yl)phenyl]cyclobutanecarboxamide]
